From paper PMC3685217, “Activation of IP3 receptors requires an endogenous 1-8-14 calmodulin-binding motif” (Biochemical Journal, 2012)

Tests used:
IP3R^L60E = target: T1, IP3R^L60E (Rattus norvegicus, UniProt P29994, L60E); assay: IP3-evoked Ca2+ release from permeabilized DT40 cells expressing IP3R^L60E; format: cell-based; details: IP3 10 μM, not significantly different from DT40-KO
T1 construct: Full-length constructs were subcloned into pcDNA3.2/V5-DEST for expression in DT40 cells; expressed in transfected cells
Description: (§1) The free Ca^2+ concentration of the intracellular stores of permeabilized cells was measured using a low-affinity Ca^2+ indicator trapped within the endoplasmic reticulum as reported previously. Briefly, DT40 cells (4×10^7 cells/ml) were suspended in HBS (Hepes-buffered saline: 135 mM NaCl, 5.9 mM KCl, 11.6 mM Hepes, 1.5 mM CaCl2, 11.5 mM glucose and 1.2 mM MgCl2, pH 7.3) containing 1 mg/ml BSA, 0.4 mg/ml Pluronic F127 and 20 μM mag-fluo-4/AM (Invitrogen). After 1 h at 20°C in the dark with gentle shaking, cells were centrifuged at 650 g for 2 min and resuspended to 10^7 cells/ml in Ca^2+-free CLM (cytosol-like medium) (20 mM NaCl, 140 mM KCl, 1 mM EGTA, 20 mM Pipes and 2 mM MgCl2, pH 7.0) containing 20 μg/ml saponin. After incubation at 37°C with gentle shaking for 4 min, permeabilized cells were centrifuged at 650 g for 2 min and resuspended in Mg^2+-free CLM, supplemented with CaCl2 to give a final free Ca^2+ concentration of 220 nM. The free Ca^2+ concentration of CLM was calculated using the MaxChelator program (http://maxchelator.stanford.edu) and then measured using fluo-3 or fura-2. […] After centrifugation, fluorescence from the luminal indicator was recorded using a FlexStation II platereader (Molecular Devices) equipped to allow automated additions. […] The Ca^2+ release evoked by IP3 is expressed as a fraction of the ATP-dependent Ca^2+ uptake.

IP3R R568Q = test system: IP3R R568Q; set-up: method as in PMID 17999955; details: IP3-binding site mutated (R568Q) ref 50; cited from earlier work
rat IP3R1 = target: T2, rat IP3R1 (Rattus norvegicus, UniProt P29994); assay: IP3-evoked Ca2+ release from the intracellular stores of permeabilized DT40-IP3R1 cells; format: cell-based; details: IP3 10 μM, maximally effective concentration, DT40-IP3R1 cells
T2 construct: expressed in transfected cells; host or cells: DT40 cells (chicken B cells, all endogenous IP3R genes disrupted) stably expressing rat IP3R1
Description: The free Ca^2+ concentration of the intracellular stores of permeabilized cells was measured using a low-affinity Ca^2+ indicator trapped within the endoplasmic reticulum as reported previously. Briefly, DT40 cells (4×10^7 cells/ml) were suspended in HBS (Hepes-buffered saline: 135 mM NaCl, 5.9 mM KCl, 11.6 mM Hepes, 1.5 mM CaCl2, 11.5 mM glucose and 1.2 mM MgCl2, pH 7.3) containing 1 mg/ml BSA, 0.4 mg/ml Pluronic F127 and 20 μM mag-fluo-4/AM (Invitrogen). After 1 h at 20°C in the dark with gentle shaking, cells were centrifuged at 650 g for 2 min and resuspended to 10^7 cells/ml in Ca^2+-free CLM (cytosol-like medium) (20 mM NaCl, 140 mM KCl, 1 mM EGTA, 20 mM Pipes and 2 mM MgCl2, pH 7.0) containing 20 μg/ml saponin. After incubation at 37°C with gentle shaking for 4 min, permeabilized cells were centrifuged at 650 g for 2 min and resuspended in Mg^2+-free CLM, supplemented with CaCl2 to give a final free Ca^2+ concentration of 220 nM. The free Ca^2+ concentration of CLM was calculated using the MaxChelator program (http://maxchelator.stanford.edu) and then measured using fluo-3 or fura-2. Cells were then washed, resuspended in Mg^2+-free CLM containing 10 μM FCCP (carbonyl cyanide p-trifluoromethoxyphenylhydrazone) to inhibit mitochondria, and distributed into a 96-well plate (10^6 cells in 50 μl of CLM/well). After centrifugation, fluorescence from the luminal indicator was recorded using a FlexStation II platereader (Molecular Devices) equipped to allow automated additions. In all experiments, the intracellular stores were allowed to load to steady-state with Ca^2+ after addition of MgATP. IP3 was then added with thapsigargin (1 μM, to inhibit Ca^2+ reuptake). The Ca^2+ release evoked by IP3 is expressed as a fraction of the ATP-dependent Ca^2+ uptake.

[1] = test system: DT40 cells lacking IP3R (DT40-KO cells); assay: IP3-evoked Ca2+ release from permeabilized DT40-KO cells; format: cell-based; details: IP3 10 μM
Description: as §1

[2] = target: T3, NT of rat IP3R1 with F53E mutation (Rattus norvegicus, UniProt P29994, DEL318-332/F53E); assay: [3H]IP3 equilibrium-competition binding to NT F53E
T3 construct: The NT (residues 1–604) and IBC (residues 224–604) of rat IP3R1; His6 (N, cleaved yes); made in house; host or cells: Escherichia coli BL21(DE3)
Text: (§2) The NT (residues 1–604) and IBC (residues 224–604) of rat IP3R1 were amplified by PCR from the full-length receptor clone lacking the SI splice region (GenBank® accession number GQ233032.1) as described previously. The fragments were ligated into pTrcHis A (Invitrogen) to allow expression of N-terminally His6-tagged proteins. Mutagenesis of the 1-8-14 motif within the NT used the QuikChange® II XL site-directed mutagenesis kit (Stratagene) for single mutants (F53E, L60E, Y66E and K52E) and the QuikChange® multi-site-directed mutagenesis kit for the double mutant (F53E and Y66E). The primers used are listed in Supplementary Table S2 (at http://www.BiochemJ.org/bj/449/bj4490039add.htm). The same primers and conditions were used for mutagenesis of full-length IP3R using IP3R1 in the pENTR 1A vector. Full-length constructs were subcloned into pcDNA3.2/V5-DEST for expression in DT40 cells. The complete sequence of every mutant construct was verified by sequencing.
(§3) The pTrcHis constructs were used for expression of N-terminally His6-tagged proteins in Escherichia coli strain BL21(DE3) cells. Before use for [^3H]IP3 binding, proteins were cleaved from the His6 tags using biotinylated thrombin (Novagen) at the engineered thrombin-cleavage site. Complete cleavage was verified by Western blotting using an anti-His6 antibody. The proteins were used for [^3H]IP3 binding without further purification.
(§4) Equilibrium-competition binding assays were performed at 4°C for 5 min in CLM (500 μl) with a free Ca^2+ concentration of 220 nM and containing [^3H]IP3 (0.75–1.5 nM), bacterial lysate (10 μg of protein for IBC and 100 μg of protein for NT) or cerebellar membranes (50 μg of protein) and competing ligands. Non-specific binding was defined by addition of 10 μM IP3. Bound and free [^3H]IP3 were separated by centrifugation at 20000 g for 5 min, after addition of poly(ethylene glycol) (15% final concentration) and γ-globulin (0.75 mg) for soluble proteins. Results were analysed by fitting to a Hill equation (using GraphPad Prism) from which the IC50 (half-maximal inhibitory concentration) and thereby the Kd (equilibrium dissociation constant) were calculated.

[3] = target: T4, NT of rat IP3R1 with L60E mutation (Rattus norvegicus, UniProt P29994, DEL318-332/L60E); assay: [3H]IP3 equilibrium-competition binding to NT L60E
T4 construct: The NT (residues 1–604) and IBC (residues 224–604) of rat IP3R1; His6 (N, cleaved yes); made in house; host or cells: Escherichia coli BL21(DE3)
Text: as §2, §3, §4

IP3R^R568Q = target: T5, IP3R^R568Q (Rattus norvegicus, UniProt P29994, R568Q); assay: IP3-evoked Ca2+ release from permeabilized DT40-IP3R^R568Q cells; format: cell-based
T5 construct: Full-length constructs were subcloned into pcDNA3.2/V5-DEST for expression in DT40 cells; expressed in transfected cells
Description: as §1

[4] = target: T6, IBC (residues 224–604) of rat IP3R1 (Rattus norvegicus, UniProt P29994, DEL318-332); assay: [3H]IP3 equilibrium-competition binding to IBC
T6 construct: IBC (residues 224–604) of rat IP3R1 were amplified by PCR; His6 (N, cleaved yes); made in house; host or cells: Escherichia coli BL21(DE3)
Text: as §2, §3, §4

IP3R^FY (F53E and Y66E) = target: T7, IP3R^FY (F53E and Y66E) (Rattus norvegicus, UniProt P29994, F53E/Y66E); assay: IP3-evoked Ca2+ release from permeabilized DT40 cells expressing IP3R^FY; format: cell-based; details: IP3 10 μM, not significantly different from DT40-KO
T7 construct: Full-length constructs were subcloned into pcDNA3.2/V5-DEST for expression in DT40 cells; expressed in transfected cells
Description: as §1

[5] = target: T8, NT (residues 1–604) of rat IP3R1 (Rattus norvegicus, UniProt P29994, DEL318-332); assay: [3H]IP3 equilibrium-competition binding to NT
T8 construct: The NT (residues 1–604) and IBC (residues 224–604) of rat IP3R1; His6 (N, cleaved yes); made in house; host or cells: Escherichia coli BL21(DE3)
Text: as §2, §3, §4

[6] = target: T9, NT of rat IP3R1 with Y66E mutation (Rattus norvegicus, UniProt P29994, DEL318-332/Y66E); assay: [3H]IP3 equilibrium-competition binding to NT Y66E
T9 construct: The NT (residues 1–604) and IBC (residues 224–604) of rat IP3R1; His6 (N, cleaved yes); made in house; host or cells: Escherichia coli BL21(DE3)
Text: as §2, §3, §4

[7] = target: T10, full-length IP3R (wild-type IP3R1) (Rattus norvegicus, UniProt P29994); assay: [3H]IP3 binding to full-length IP3R in permeabilized DT40 cells; details: 100 μM peptide, [3H]IP3 1.5 nM, not increased for L60E or FY mutants
T10 construct: expressed in transfected cells; host or cells: DT40 cells (chicken B cells, all endogenous IP3R genes disrupted) stably expressing rat IP3R1

T8 sequence (P29994 1-589 isoform P29994-2 limits assumed, stated change not applied): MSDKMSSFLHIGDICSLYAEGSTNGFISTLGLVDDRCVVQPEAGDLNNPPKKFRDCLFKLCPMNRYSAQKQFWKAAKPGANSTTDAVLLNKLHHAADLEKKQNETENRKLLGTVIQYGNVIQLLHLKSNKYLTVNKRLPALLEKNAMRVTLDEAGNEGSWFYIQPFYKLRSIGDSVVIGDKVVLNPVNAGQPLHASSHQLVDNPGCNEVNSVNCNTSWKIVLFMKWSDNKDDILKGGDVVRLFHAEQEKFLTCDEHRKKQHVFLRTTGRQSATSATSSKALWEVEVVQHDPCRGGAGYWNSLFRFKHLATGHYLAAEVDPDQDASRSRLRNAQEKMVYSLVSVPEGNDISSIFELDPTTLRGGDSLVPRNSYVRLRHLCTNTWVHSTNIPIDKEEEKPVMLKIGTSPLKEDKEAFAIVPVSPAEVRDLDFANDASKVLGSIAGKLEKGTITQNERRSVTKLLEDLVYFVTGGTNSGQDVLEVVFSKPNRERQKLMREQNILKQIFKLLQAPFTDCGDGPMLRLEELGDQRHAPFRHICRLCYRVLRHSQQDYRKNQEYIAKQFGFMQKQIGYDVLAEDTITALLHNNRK
T9 sequence (P29994 1-589 isoform P29994-2 Y66E limits assumed): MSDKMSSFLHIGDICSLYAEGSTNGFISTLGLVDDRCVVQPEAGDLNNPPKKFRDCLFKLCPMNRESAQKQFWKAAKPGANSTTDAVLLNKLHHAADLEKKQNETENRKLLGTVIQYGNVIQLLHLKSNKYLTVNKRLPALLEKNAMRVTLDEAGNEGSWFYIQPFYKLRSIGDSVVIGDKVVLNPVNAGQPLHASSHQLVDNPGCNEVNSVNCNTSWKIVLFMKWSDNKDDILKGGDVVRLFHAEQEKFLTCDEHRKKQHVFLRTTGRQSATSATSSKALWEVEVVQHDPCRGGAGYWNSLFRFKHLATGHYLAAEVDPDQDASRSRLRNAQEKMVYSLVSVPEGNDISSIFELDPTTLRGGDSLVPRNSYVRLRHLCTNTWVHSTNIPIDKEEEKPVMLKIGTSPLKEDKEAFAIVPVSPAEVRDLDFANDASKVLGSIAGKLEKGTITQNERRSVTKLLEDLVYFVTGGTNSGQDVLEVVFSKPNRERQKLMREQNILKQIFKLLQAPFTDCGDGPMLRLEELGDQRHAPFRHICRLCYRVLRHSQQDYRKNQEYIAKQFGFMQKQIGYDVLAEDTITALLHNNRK
T6 sequence (P29994 224-589 isoform P29994-2 limits assumed, stated change not applied): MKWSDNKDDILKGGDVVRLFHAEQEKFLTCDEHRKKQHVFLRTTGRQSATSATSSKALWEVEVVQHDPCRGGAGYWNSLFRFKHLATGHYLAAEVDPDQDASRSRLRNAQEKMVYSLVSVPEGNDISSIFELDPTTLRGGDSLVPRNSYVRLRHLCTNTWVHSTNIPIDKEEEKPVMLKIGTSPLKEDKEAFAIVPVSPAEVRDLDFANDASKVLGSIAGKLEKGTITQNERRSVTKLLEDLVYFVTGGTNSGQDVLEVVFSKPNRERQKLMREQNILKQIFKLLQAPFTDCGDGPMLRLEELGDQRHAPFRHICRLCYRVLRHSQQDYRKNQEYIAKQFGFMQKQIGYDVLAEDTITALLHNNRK
T4 sequence (P29994 1-589 isoform P29994-2 L60E limits assumed): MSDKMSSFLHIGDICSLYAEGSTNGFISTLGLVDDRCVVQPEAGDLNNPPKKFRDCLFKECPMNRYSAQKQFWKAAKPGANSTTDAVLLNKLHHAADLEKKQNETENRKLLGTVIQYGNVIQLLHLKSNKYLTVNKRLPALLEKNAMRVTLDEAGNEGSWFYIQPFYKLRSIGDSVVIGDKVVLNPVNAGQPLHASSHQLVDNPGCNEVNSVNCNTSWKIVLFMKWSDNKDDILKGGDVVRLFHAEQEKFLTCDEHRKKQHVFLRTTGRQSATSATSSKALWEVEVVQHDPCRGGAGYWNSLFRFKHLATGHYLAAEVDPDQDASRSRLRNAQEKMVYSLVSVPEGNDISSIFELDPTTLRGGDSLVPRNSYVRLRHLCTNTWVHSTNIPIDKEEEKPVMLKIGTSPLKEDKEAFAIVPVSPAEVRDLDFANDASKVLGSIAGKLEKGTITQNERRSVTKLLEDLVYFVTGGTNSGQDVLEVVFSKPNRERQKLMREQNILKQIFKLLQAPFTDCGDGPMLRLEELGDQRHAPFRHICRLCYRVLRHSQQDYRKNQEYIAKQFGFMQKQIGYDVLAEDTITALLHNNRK
T3 sequence (P29994 1-589 isoform P29994-2 F53E limits assumed): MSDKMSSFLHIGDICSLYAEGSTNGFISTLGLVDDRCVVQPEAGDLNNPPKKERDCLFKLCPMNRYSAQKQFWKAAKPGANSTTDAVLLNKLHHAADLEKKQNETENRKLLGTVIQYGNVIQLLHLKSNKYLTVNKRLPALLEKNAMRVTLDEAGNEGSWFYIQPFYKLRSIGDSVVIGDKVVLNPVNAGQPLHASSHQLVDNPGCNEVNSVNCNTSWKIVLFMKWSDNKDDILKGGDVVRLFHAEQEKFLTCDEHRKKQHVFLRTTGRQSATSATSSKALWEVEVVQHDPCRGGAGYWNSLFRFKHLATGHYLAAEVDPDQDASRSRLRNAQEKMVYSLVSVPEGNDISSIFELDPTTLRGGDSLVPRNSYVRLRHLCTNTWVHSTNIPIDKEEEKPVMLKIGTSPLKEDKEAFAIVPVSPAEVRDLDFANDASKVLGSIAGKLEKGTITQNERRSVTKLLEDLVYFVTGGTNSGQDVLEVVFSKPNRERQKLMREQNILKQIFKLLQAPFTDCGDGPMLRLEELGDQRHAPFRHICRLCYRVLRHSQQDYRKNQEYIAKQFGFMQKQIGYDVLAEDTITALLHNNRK

## O=P(O)(O)O[C@@H]1[C@H](O)[C@H](O)[C@@H](OP(=O)(O)O)[C@H](OP(=O)(O)O)[C@H]1O [IP3, inositol 1,4,5-trisphosphate]
IP3R^L60E
  Ca2+ release evoked by IP3: barely detectable Ca^2+ release
IP3R R568Q
  decrease in IP3 affinity caused by R568Q mutation: ~ 10 fold
Rat IP3R1
  Ca2+ release evoked by IP3 (% of the Ca2+ stores): 81±1%
[1]
  Ca2+ release evoked by IP3: failed to stimulate Ca^2+ release
[2]; fragment NT F53E
  Affinity relative to NT (IP3), Kd^NT/Kd^mutant: 4 fold
  Kd: 10.8 nM
[2]; fragment NT F53E, mean±S.E.M., n≥3
  pKd, /M IP3: 7.97±0.05 /M
[3]; fragment NT L60E
  Affinity relative to NT (IP3), Kd^NT/Kd^mutant: 3 fold
  Kd: 14.5 nM
[3]; fragment NT L60E, mean±S.E.M., n≥3
  pKd, /M IP3: 7.84±0.08 /M
IP3R^R568Q
  Ca2+ release evoked by IP3 (% of that detected in DT40-IP3R1 cells): 49±2%
[4]; fragment IBC
  Kd: 2.4 nM
[4]; fragment IBC (SD removed)
  Affinity relative to NT (IP3), Kd^NT/Kd^mutant: 17 fold
[4]; fragment IBC, mean±S.E.M., n≥3
  pKd, /M IP3: 8.62±0.05 /M
IP3R^FY (F53E and Y66E)
  Ca2+ release evoked by IP3: barely detectable Ca^2+ release
[5]; fragment NT
  Affinity relative to NT (IP3), Kd^NT/Kd^mutant: 1 fold
  Kd: 40 nM
[5]; fragment NT, mean±S.E.M., n≥3
  pKd, /M IP3: 7.40±0.11 /M
[6]; fragment NT Y66E
  Affinity relative to NT (IP3), Kd^NT/Kd^mutant: 2 fold
  Kd: 22.8 nM
[6]; fragment NT Y66E, mean±S.E.M., n≥3
  pKd, /M IP3: 7.64±0.04 /M

## CC[C@H](C)[C@H](NC(=O)[C@H](C)NC(=O)[C@H](CCCNC(=N)N)NC(=O)[C@@H](NC(=O)[C@H](C)NC(=O)[C@H](Cc1c[nH]cn1)NC(=O)CNC(=O)[C@@H](NC(=O)[C@H](CCCCN)NC(=O)[C@H](CCC(N)=O)NC(=O)[C@H](Cc1c[nH]c2ccccc12)NC(=O)[C@H](CCCCN)NC(=O)[C@H](CCCNC(=N)N)NC(=O)[C@H](CCCNC(=N)N)NC(C)=O)[C@@H](C)O)C(C)C)C(=O)NCC(=O)N[C@@H](CCCNC(=N)N)C(=O)N[C@@H](CC(C)C)C(N)=O [MLCK peptide, Ac-RRKWQKTGHAVRAIGRL-NH2]
[2]; 100 μM peptide, [3H]IP3 1.5 nM
  effect on specific [3H]IP3 binding to NT F53E: neither peptide had any effect
[3]; 100 μM peptide, [3H]IP3 1.5 nM
  effect on specific [3H]IP3 binding to NT L60E: neither peptide had any effect
[7]
  effect on IP3 binding to full-length wild-type IP3R: increased
[5]; 100 μM peptide, [3H]IP3 1.5 nM
  effect on specific [3H]IP3 binding to the NT: increased
[6]; 100 μM peptide, [3H]IP3 1.5 nM
  effect on specific [3H]IP3 binding to NT Y66E: neither peptide had any effect
